Assay results: patent publication US20220317138A1, “METHODS FOR DETERMINING THE CONCENTRATION OF A CARBAPENEM ANTIBIOTIC IN A BIOLOGICAL SAMPLE” (priority 2019, published 2022)
Like-named read-outs stand apart in the source and are kept apart here.

B1: Kpc2: class A beta-lactamase screened (protein, UniProt Q9F663 25-293, looked up)
Carbapenem-hydrolyzing …: LTNLVAEPFAKLEQDFGGSIGVYAMDTGSGATVSYRAEERFPLCSSFKGFLAAAVLARSQQQAGLLDTPIRYGKNALVPWSPISEKYLTTGMTVAELSAAAVQYSDNAAANLLLKELGGPAGLTAFMRSIGDTTFRLDRWELELNSAIPGDARDTSSPRAVTESLQKLTLGSALAAPQRQQFVDWLKGNTTGNHRIRAAVPADWAVGDKTGTCGVYGTANDYAVVWPTGRAPIVLAVYTRAPNKDDKHSEAVIAAAARLALEGLGVNGQ
B2: Oxa48: beta-lactamase class D OXA-48 from Klebsiella pneumoniae, used as biosensor (protein, listed as Klebsiella pneumoniae)
chain: MRVLALSAVFLVASIIGMPAVAKEWQENKSWNAHFTEHKSQGVVVLWNENKQQGFTNNLKRANQAFLPASTFKIPNSLIALDLGVVKDEHQVFKWDGQTRDIATWNRDHNLITAMKYSVVPVYQEFARQIGEARMSKMLHAFDYGNEDISGNVDSFWLDGGIRISATEQISFLRKLYHNKLHVSERSQRIVKQAMLTEANGDYIIRAKTGYSTRIEPKIGWWVGWVELDDNVWFFAMNMDMPTSDGLGLRQAITKEVLKQEKIIP
modifications: PEPTIDE (1)..(22) SIGNAL PEPTIDE
notes: beta-lactamase class D OXA-48 from Klebsiella pneumoniae, used as biosensor
B3: Ndm1: class B beta-lactamase screened (protein, UniProt C7C422 29-270, looked up)
Metallo-beta-lactamase type 2: GEIRPTIGQQMETGDQRFGDLVFRQLAPNVWQHTSYLDMPGFGAVASNGLIVRDGGRVLVVDTAWTDDQTAQILNWIKQEINLPVALAVVTHAHQDKMGGMDALHAAGIATYANALSNQLAPQEGMVAAQHSLTFAANGWVEPATAPNFGPLKVFYPGPGHTSDNITVGIDGTDIAFGGCLIKDSKAKSLGNLGDADTEHYAASARAFGAAFPKASMIVMSHSAPDSRAAITHTARMADKLR

Assays:
[1] = target: P99 beta-lactamase (class C) (Enterobacter cloacae, UniProt P05364); format: biochemical; conditions: nitrocefin reporter
Chain of P99 beta-lactamase (class C) (P05364 21-381): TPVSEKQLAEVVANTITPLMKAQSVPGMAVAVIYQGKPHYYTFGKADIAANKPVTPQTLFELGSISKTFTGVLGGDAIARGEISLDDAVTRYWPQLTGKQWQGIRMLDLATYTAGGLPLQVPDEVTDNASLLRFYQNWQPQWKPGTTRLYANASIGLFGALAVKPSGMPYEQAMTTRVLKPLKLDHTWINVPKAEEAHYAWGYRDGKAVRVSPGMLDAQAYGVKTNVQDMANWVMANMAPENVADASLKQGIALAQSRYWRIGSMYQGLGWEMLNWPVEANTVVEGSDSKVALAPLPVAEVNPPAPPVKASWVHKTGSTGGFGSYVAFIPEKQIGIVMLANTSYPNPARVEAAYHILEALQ

[2] = system: AmpCHD beta-lactamase (class C); assay: Screening of beta-lactamases by competition, nitrocefin as reporter substrate; format: biochemical
[3] = target: beta-lactamase class D OXA-48 (Klebsiella pneumoniae, UniProt Q6XEC0); format: biochemical; conditions: for Accuracy <> (average) / [Meropenem] <> (average): average of 5 replicates
Source text: The specificity (or selectivity) of the method according to an embodiment of the invention is defined as the ability of the method to measure the concentration of a carbapenem antibiotic (such as meropenem) in presence of an excess of another beta-lactam antibiotic (second beta-lactam) currently used in ICUs (see Table 4).
To determine the specificity of the method illustrating the invention for carbapenem antibiotics, in particular meropenem, versus other beta-lactam antibiotics, stock-solutions of second beta-lactam antibiotics were prepared in water.
An excess of a second beta-lactam concentration of up to 10 times the concentration of meropenem was used.

[4] = system: Imp4 beta-lactamase (class B); assay: Screening of beta-lactamases by competition, nitrocefin as reporter substrate; format: biochemical
[5] = target: Imp1 beta-lactamase (class B) (Serratia marcescens, UniProt P52699); format: biochemical; conditions: nitrocefin reporter
Chain of Imp1 beta-lactamase (class B) (P52699 19-246 limits assumed): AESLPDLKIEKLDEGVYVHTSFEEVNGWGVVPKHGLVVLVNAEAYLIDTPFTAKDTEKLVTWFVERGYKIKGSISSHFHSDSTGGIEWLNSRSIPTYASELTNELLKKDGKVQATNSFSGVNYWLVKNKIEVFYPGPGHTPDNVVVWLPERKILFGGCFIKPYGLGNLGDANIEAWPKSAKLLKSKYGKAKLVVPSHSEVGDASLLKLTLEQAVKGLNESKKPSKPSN

[6] = system: Per2 beta-lactamase (class A); assay: Screening of beta-lactamases by competition, nitrocefin as reporter substrate; format: biochemical
[7] = target: Oxa48 beta-lactamase (class D) (Klebsiella pneumoniae, UniProt Q6XEC0); format: biochemical; conditions: nitrocefin reporter
[8] = target: CTXM15 beta-lactamase (class A) (Escherichia coli, UniProt Q9EXV5); format: biochemical; conditions: nitrocefin reporter
Chain of CTXM15 beta-lactamase (class A) (Q9EXV5 29-291 limits assumed): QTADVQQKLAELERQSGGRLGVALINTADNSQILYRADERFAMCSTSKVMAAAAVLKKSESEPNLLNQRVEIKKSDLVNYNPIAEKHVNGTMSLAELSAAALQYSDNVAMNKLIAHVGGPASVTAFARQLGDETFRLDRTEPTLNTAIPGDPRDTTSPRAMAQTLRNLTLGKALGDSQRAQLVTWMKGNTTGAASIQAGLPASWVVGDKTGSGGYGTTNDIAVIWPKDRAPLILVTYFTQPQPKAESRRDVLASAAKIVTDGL

[9] = Activity loss of the beta-lactamase in 1 h; format: physicochemical; conditions: enzyme activity
[10] = Meropenem 1.2 mg/L, second β-lactam 10.0 mg/L (8.4 times excess)
[11] = Meropenem 20.0 mg/L, second β-lactam 200.0 mg/L (10 times excess)

Row | Molecule | hydrolysis rate symbol, (Vmax/V0)-1 [1] | hydrolysis rate symbol, (Vmax/V0)-1 [2] | Accuracy <> (average) [3, 10] [%] | [Meropenem] <> (average) [3, 10] [mg/L] | Accuracy Replicate 1 [3, 10] [%] | [Meropenem] Replicate 1 [3, 10] [mg/L] | Accuracy Replicate 2 [3, 10] [%] | [Meropenem] Replicate 2 [3, 10] [mg/L] | Accuracy Replicate 3 [3, 10] [%] | [Meropenem] Replicate 3 [3, 10] [mg/L] | Accuracy Replicate 4 [3, 10] [%] | [Meropenem] Replicate 4 [3, 10] [mg/L] | Accuracy Replicate 5 [3, 10] [%] | [Meropenem] Replicate 5 [3, 10] [mg/L] | Accuracy <> (average) [3, 11] [%] | [Meropenem] <> (average) [3, 11] [mg/L] | Accuracy Replicate 1 [3, 11] [%] | [Meropenem] Replicate 1 [3, 11] [mg/L] | Accuracy Replicate 2 [3, 11] [%] | [Meropenem] Replicate 2 [3, 11] [mg/L] | also measured
1 | CO/N=C(\C(=O)N[C@@H]1C(=O)N2C(C(=O)O)=C(COC(C)=O)CS[C@H]12)c1csc(N)n1 [Cefotaxim ® Sandoz] | ++++ (>100) | + (0.1-1) | 111 | 1.3 | 109 | 1.3 | 116 | 1.3 | 107 | 1.2 | 110 | 1.3 | 115 | 1.3 | 92 | 20.5 | 93 | 20.8 | 94 | 20.9 | Accuracy Replicate 3 [3, 11]: 91%; [Meropenem] Replicate 3 [3, 11]: 20.2 mg/L; Accuracy Replicate 4 [3, 11]: 91%; [Meropenem] Replicate 4 [3, 11]: 20.2 mg/L; Accuracy Replicate 5 [3, 11]: 91%; [Meropenem] Replicate 5 [3, 11]: 20.2 mg/L; hydrolysis rate symbol, (Vmax/V0)-1 [4]: + (0.1-1); hydrolysis rate symbol, (Vmax/V0)-1 [5]: + (0.1-1)
2 | CC1(C)S[C@@H]2[C@H](NC(=O)[C@H](N)c3ccccc3)C(=O)N2[C@H]1C(=O)O [Pentrexyl ®] | ++ (1-10) | +++ (10-100) | 112 | 1.3 | 122 | 1.4 | 112 | 1.3 | 110 | 1.3 | 109 | 1.3 | 108 | 1.3 | 95 | 21.1 | 92 | 20.5 | 93 | 20.8 | Accuracy Replicate 3 [3, 11]: 96%; [Meropenem] Replicate 3 [3, 11]: 21.4 mg/L; Accuracy Replicate 4 [3, 11]: 95%; [Meropenem] Replicate 4 [3, 11]: 21.3 mg/L; Accuracy Replicate 5 [3, 11]: 98%; [Meropenem] Replicate 5 [3, 11]: 21.8 mg/L; hydrolysis rate symbol, (Vmax/V0)-1 [6]: + (0.1-1)
3 | CC1(C)S[C@@H]2[C@H](NC(=O)[C@H](C(=O)O)c3ccsc3)C(=O)N2[C@H]1C(=O)O [Ticarpen ®] | ++++ (>100) | + (0.1-1) | 112 | 1.3 | 121 | 1.4 | 122 | 1.4 | 102 | 1.2 | 111 | 1.3 | 105 | 1.2 | 101 | 22.6 | 102 | 22.7 | 105 | 23.4 | hydrolysis rate symbol, (Vmax/V0)-1 [7]: + (0.1-1); hydrolysis rate symbol, (Vmax/V0)-1 [8]: ++ (1-10); Accuracy Replicate 3 [3, 11]: 104%; [Meropenem] Replicate 3 [3, 11]: 23.1 mg/L; Accuracy Replicate 4 [3, 11]: 98%; [Meropenem] Replicate 4 [3, 11]: 21.9 mg/L; Accuracy Replicate 5 [3, 11]: 98%; [Meropenem] Replicate 5 [3, 11]: 21.9 mg/L; hydrolysis rate symbol, (Vmax/V0)-1 [6]: ++ (1-10)
4 | CO/N=C(\C(=O)N[C@@H]1C(=O)N2C(C(=O)O)=C(COC(N)=O)CS[C@H]12)c1ccco1 [Zinacef ®] | ++++ (>100) | + (0.1-1) | 104 | 1.2 | 108 | 1.3 | 97 | 1.1 | 100 | 1.2 | 104 | 1.2 | 111 | 1.3 | 98 | 21.9 | 98 | 21.8 | 98 | 21.9 | Accuracy Replicate 3 [3, 11]: 95%; [Meropenem] Replicate 3 [3, 11]: 21.2 mg/L; Accuracy Replicate 4 [3, 11]: 101%; [Meropenem] Replicate 4 [3, 11]: 22.4 mg/L; Accuracy Replicate 5 [3, 11]: 99%; [Meropenem] Replicate 5 [3, 11]: 22.0 mg/L; hydrolysis rate symbol, (Vmax/V0)-1 [5]: + (0.1-1)
5 | B1 |  |  |  |  |  |  |  |  |  |  |  |  |  |  |  |  |  |  |  |  | Activity loss in 1 h [9]: 2%
6 | B2 |  |  |  |  |  |  |  |  |  |  |  |  |  |  |  |  |  |  |  |  | Activity loss in 1 h [9]: 0%
7 | B3 |  |  |  |  |  |  |  |  |  |  |  |  |  |  |  |  |  |  |  |  | Activity loss in 1 h [9]: 0%
